Measurements reported in patent publication US10206908B2, “3-(1H-pyrrolo[3,2-C]pyridin-2-YL)-1H-pyrazolo[3,4-C]pyridines and therapeutic uses thereof” (Samumed, LLC, priority 2015, dated 2019).

Columns and labels:
Assay type in all cases: cell-based
IL-6 (THP-1 cells) = assay: IL-6 inhibition in LPS-stimulated THP-1 monocytes (HTRF); details: Homo sapiens; for EC50: IL-6, THP-1 cells, LPS 500 ng/mL, 22 hours; for inhibition at 10 µM: THP-1, read-out: percent inhibition at 10 μM
Protocol: Compound Screening: THP-1 cells were cultured in basal media with 1% FBS for 24 hours before the start of the assay. […] THP-1 cells were plated at 5000 cells/well in the 384-well plates and incubated at 37° C. for 2 h. 500 ng/mL of LPS was added after 2 hours and cells were incubated for another 22 hours at 37° C. Plates were spun in a centrifuge for 1 minute at […] and a mixture of anti-IL6 XL665, and anti-IL6 Cryptate diluted in reconstitution buffer (Cisbio Inc.) was added to each well. Following incubation for 3 hrs at room temperature, Homogeneous Time-Resolved Fluorescence (HTRF) was measured using the Envision (Perkin Elmer) at 665 nm and […]. The ratio of fluorescence at 665 nm to 620 nm was used as a readout for IL6 quantification. All samples were processed in duplicate. Readings were normalized to DMSO treated cells and normalized activities were utilized for EC50 calculations using the dose-response log (inhibitor) vs. response-variable slope (four parameters) nonlinear regression feature available in GraphPad Prism 5.0 (or Dotmatics).

[1] = test system: Wnt activity (Sp5-Luc reporter, SW480 colon carcinoma cells); assay: Screening assay for Wnt activity: Sp5-Luc reporter gene assay in SW480 colon carcinoma cells; details: Homo sapiens; for EC50: Sp5-Luc reporter, SW480 cells, overnight incubation; for inhibition at 10 µM: SW480, read-out: percent inhibition at 10 μM
Source text: The screening assay for Wnt activity is described as follows. Reporter cell lines can be generated by stably transducing cancer cell lines (e.g., colon cancer) or primary cells (e.g., IEC-6 intestinal cells) with a lentiviral construct that includes a Wnt-responsive promoter driving expression of the firefly luciferase gene.
SW480 colon carcinoma cells were transduced with a lentiviral vector expressing luciferase with a human Sp5 promoter consisting of a sequence of eight TCF/LEF binding sites. SW480 cells stably expressing the Sp5-Luc reporter gene and a hygromycin resistance gene were selected by treatment with 150 μg/mL of hygromycin for 7 days. These stably transduced SW480 cells were expanded in cell culture and used for all further screening activities. […] For Sp5-Luc reporter gene assays, the cells were plated at 4,000 cells/well in 384-well plates with medium containing 1% fetal bovine serum and incubated overnight at 37° C. and 5% CO2. Following incubation, 20 μl of BrightGlo luminescence reagent (Promega) was added to each well of the 384-well assay plates. The plates were placed on an orbital shaker for 2 min and then luminescence was quantified using the Envision (Perkin Elmer) plate reader. Readings were normalized to DMSO only treated cells, and normalized activities were utilized for EC50 calculations using the dose-response log (inhibitor) vs. response-variable slope (four parameters) nonlinear regression feature available in GraphPad Prism 5.0 (or Dotmatics).

SW480 colon cancer cells = assay: Cell viability assay (CellTiter-Blue) in SW480 colon cancer cells; details: Homo sapiens; for EC50: 96 h, SW480 cell viability, four days; for inhibition at 10 µM: SW480, read-out: percent inhibition at 10 μM
Protocol: Representative compounds were screened using the following assay procedure to assess the effect on cell viability as described below.
Approximately 2×10^3 SW480 colon cancer cells were seeded into each well and allowed to incubate in the presence or absence of compound for four days at 37° C./5% CO2. Eight replicates of DMSO-treated cells served as controls and cells treated with compound were performed in duplicate.
After incubation, 20 μL of CellTiter-Blue (Promega) was added to each well allowed to incubate for approximately 3 hours. This reagent was a buffered solution which contains resazurin, metabolically active cells were able to reduce rezarurin (blue) into resorufin (pink) which was highly fluorescent. This measured fluorescence was used as a readout for cell viability.

[2] = test system: primary human fibroblasts derived from IPF patients (LL29 cells) treated with TGF-β1; assay: Inhibition of the fibrotic process: αSMA staining in TGF-β1 treated LL29 fibroblasts; details: Fibroblast; for EC50: 96 h, % αSMA positive LL29 cells, TGF-β1 20 ng/mL, 4 days; for inhibition at 10 µM: read-out: percent inhibition at 10 μM
Protocol: Representative compounds were screened using primary human fibroblasts (derived from IPF patients) treated with TGF-β1 to determine their ability to inhibit the fibrotic process.
LL29 cells are plated at 1,500 cells/well in 80 μL/well F12 medium supplemented with 1% Fetal Bovine Serum. […] Wells treated with TGF-β1 and containing DMSO were used as controls. […] Following incubation for 4 days, SYTOX green nucleic acid stain (Life Technologies [Thermo Fisher Scientific]) was added to the wells at a final concentration of 1 μM and incubated at room temperature for 30 min.

[3] = test system: primary human mesenchymal stem cells (hMSCs); assay: Induction of chondrogenesis in hMSCs (chondrogenic nodules, Rhodamine B/Nile Red); details: 6 days; for EC50: concentration required to induce 50% levels of chondrogenesis vs TGF-β3, read-out: Conc (nM) of 50% TGF-β3 activity; for Emax: relative to TGF-β3 (10 ng/mL) positive control, read-out: Max. Activity as % TGF-β3 activity
Source text: Representative compounds were screened using primary human mesenchymal stem cells (hMSCs) to determine their ability to induce chondrogenesis (process by which cartilage is developed).
Human Mesenchymal Stem Cell Culture: Primary human mesenchymal stem cells (hMSCs) were purchased from Lonza (Walkersville, Md.) and expanded in Mesenchymal Stem Cell Growth Media (Lonza). Cells between passage 3 and 6 were used for the experiments.
Number of nodules in each well was normalized to the average of 3 DMSO treated wells on the same plate using Excel (Microsoft Inc.). The normalized averages (fold change over DMSO) of 3 replicate wells for each compound concentration were calculated. Due to solubility limitations of some of the compounds, curve fitting was incomplete leading to inaccurate EC50 determinations.
Using TGF-β3 as a positive control, the concentration of representative compounds required to induce 50% levels of chondrogenesis is reported. In addition, the maximum activity of each compound and the respective dose that each compound reached maximum chondrogenesis activity is reported.

SMILES	EC50 (IL-6 (THP-1 cells))	EC50 [1]	EC50 (SW480 colon cancer cells)	EC50 [3]	EC50 [2]	Emax [3]	inhibition at 10 µM (SW480 colon cancer cells)	inhibition at 10 µM (IL-6 (THP-1 cells))	inhibition at 10 µM [1]	inhibition at 10 µM [2]
Fc1ccccc1-c1nccc2[nH]c(-c3n[nH]c4cnc(-c5cncc(CN6CCCC6)c5)cc34)cc12 [Compound 70, 3-(4-(2-Fluorophenyl)-1H-pyrrolo[3,2-c]pyridin-2-yl)-5-(5-(pyrrolidin-1-ylmethyl)pyridin-3-yl)-1H-pyrazolo[3,4-c]pyridine]	2320 nM	1980 nM	3.16 µM	10 nM	1250 nM	69%				
CN1CCN(c2nccc3[nH]c(-c4n[nH]c5cnc(-c6cncc(NC(=O)c7ccccc7)c6)cc45)cc23)CC1 [Compound 235, N-(5-(3-(4-(4-Methylpiperazin-1-yl)-1H-pyrrolo[3,2-c]pyridin-2-yl)-1H-pyrazolo[3,4-c]pyridin-5-yl)pyridin-3-yl)benzamide]	1340 nM	2800 nM	> 10 µM	10 nM	2460 nM	67%	21.5%			
CN1CCN(c2nccc3[nH]c(-c4n[nH]c5cnc(-c6cncc(NC(=O)C7CCCCC7)c6)cc45)cc23)CC1 [Compound 247, N-(5-(3-(4-(4-Methylpiperazin-1-yl)-1H-pyrrolo[3,2-c]pyridin-2-yl)-1H-pyrazolo[3,4-c]pyridin-5-yl)pyridin-3-yl)cyclohexanecarboxamide]	4600 nM	3420 nM	> 10 µM	10 nM	2990 nM	61%	40.3%			
CC(C)C(=O)Nc1cncc(-c2cc3c(-c4cc5c(-c6cc(F)cc(CNS(C)(=O)=O)c6)nccc5[nH]4)n[nH]c3cn2)c1 [Compound 485, N-(5-(3-(4-(3-Fluoro-5-(methylsulfonamidomethyl)phenyl)-1H-pyrrolo[3,2-c]pyridin-2-yl)-1H-pyrazolo[3,4-c]pyridin-5-yl)pyridin-3-yl)isobutyramide]	> 10000 nM	> 10000 nM	> 10 µM	30 nM	> 10000 nM	80%	10.5%	47.8%	43.9%	0%
c1cncc(-c2cc3c(-c4cc5c(-c6ccoc6)nccc5[nH]4)n[nH]c3cn2)c1 [Compound 312, 3-(4-(Furan-3-yl)-1H-pyrrolo[3,2-c]pyridin-2-yl)-5-(pyridin-3-yl)-1H-pyrazolo[3,4-c]pyridine]	1010 nM	1030 nM	0.844 µM		294 nM					
CCCCC(=O)Nc1cncc(-c2cc3c(-c4cc5c(-c6cccc(F)c6)nccc5[nH]4)n[nH]c3cn2)c1 [Compound 19, N-(5-(3-(4-(3-Fluorophenyl)-1H-pyrrolo[3,2-c]pyridin-2-yl)-1H-pyrazolo[3,4-c]pyridin-5-yl)pyridin-3-yl)pentanamide]	1090 nM	1140 nM	1.33 µM		960 nM					
c1cc2[nH]c(-c3n[nH]c4cnc(-c5cncc(CN6CCCC6)c5)cc34)cc2c(N2CCCCC2)n1 [Compound 182, 3-(4-(Piperidin-1-yl)-1H-pyrrolo[3,2-c]pyridin-2-yl)-5-(5-(pyrrolidin-1-ylmethyl)pyridin-3-yl)-1H-pyrazolo[3,4-c]pyridine]	> 10000 nM	> 10000 nM	> 10 µM		> 10000 nM		13%	0%	12.7%	0%
c1cc(-c2cc3c(-c4cc5c(-c6ccncc6)nccc5[nH]4)n[nH]c3cn2)ccn1 [Compound 130, 5-(Pyridin-4-yl)-3-(4-(pyridin-4-yl)-1H-pyrrolo[3,2-c]pyridin-2-yl)-1H-pyrazolo[3,4-c]pyridine]	> 10000 nM	418 nM	> 10 µM		96 nM		36.6%	0%		
CC(C)CC(=O)Nc1cncc(-c2cc3c(-c4cc5c(-c6cc(F)cc(CNS(C)(=O)=O)c6)nccc5[nH]4)n[nH]c3cn2)c1 [Compound 478, N-(5-(3-(4-(3-Fluoro-5-(methylsulfonamidomethyl)phenyl)-1H-pyrrolo[3,2-c]pyridin-2-yl)-1H-pyrazolo[3,4-c]pyridin-5-yl)pyridin-3-yl)-3-methylbutanamide]	> 10000 nM	> 10000 nM	> 10 µM		> 10000 nM		6.3%	41.3%	38.7%	29%

Continued, in another order:

EC50 (IL-6 (THP-1 cells))	EC50 [1]	EC50 (SW480 colon cancer cells)	EC50 [3]	SMILES	EC50 [2]	Emax [3]	inhibition at 10 µM (SW480 colon cancer cells)	inhibition at 10 µM (IL-6 (THP-1 cells))	inhibition at 10 µM [1]	inhibition at 10 µM [2]
3810 nM	1440 nM	1.1 µM		c1cc2[nH]c(-c3n[nH]c4cnc(-c5cncc(OC6CCCCC6)c5)cc34)cc2c(N2CCCCC2)n1 [Compound 607, 5-(5-(Cyclohexyloxy)pyridin-3-yl)-3-(4-(piperidin-1-yl)-1H-pyrrolo[3,2-c]pyridin-2-yl)-1H-pyrazolo[3,4-c]pyridine]	1140 nM					
2150 nM	1670 nM	1.56 µM		CS(=O)(=O)NCc1cc(F)cc(-c2nccc3[nH]c(-c4n[nH]c5cnc(-c6ccccn6)cc45)cc23)c1 [Compound 504, N-(3-Fluoro-5-(2-(5-(pyridin-2-yl)-1H-pyrazolo[3,4-c]pyridin-3-yl)-1H-pyrrolo[3,2-c]pyridin-4-yl)benzyl)methanesulfonamide]	3390 nM					
503 nM	78 nM	> 10 µM		Cn1cc(-c2cc3c(-c4cc5c(-c6cccnc6)nccc5[nH]4)n[nH]c3cn2)cn1 [Compound 556, 5-(1-Methyl-1H-pyrazol-4-yl)-3-(4-(pyridin-3-yl)-1H-pyrrolo[3,2-c]pyridin-2-yl)-1H-pyrazolo[3,4-c]pyridine]	69 nM		0%			
> 10000 nM	> 10000 nM	> 10 µM		CC(C)(C)CC(=O)Nc1cncc(-c2cc3c(-c4cc5c(-c6cc(F)cc(CNS(C)(=O)=O)c6)nccc5[nH]4)n[nH]c3cn2)c1 [Compound 492, N-(5-(3-(4-(3-Fluoro-5-(methylsulfonamidomethyl)phenyl)-1H-pyrrolo[3,2-c]pyridin-2-yl)-1H-pyrazolo[3,4-c]pyridin-5-yl)pyridin-3-yl)-3,3-dimethylbutanamide]	> 10000 nM		8.6%	4.6%	17.3%	1.8%
